Test results from US20230295162A1 (EÖTVÖS LORÁND TUDOMÁNYEGYETEM, priority 2020, published 2023).
Like-named read-outs stand apart in the source and are kept apart here.

How the values were obtained:
[1] = test system: PANC-1 (human pancreatic carcinoma) cells; test: Impedance-based viability assay (xCELLigence SP), long treatment; type: cell-based; conditions: 72 h, read-out: cytotoxicity expressed in IC50, PANC-1
From the text: (Gibco®/Invitrogen Corporation, New York, NY, USA).
Data obtained from each experiment represent mathematical averages.

[2] = test system: Panc1 pancreatic cancer cell line; test: CellTiter-Glo IC50 (Example 19); type: cell-based; conditions: Homo sapiens, PANC-1, 72 h
Outline: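 Luminescent ATP-based viability readout (CellTiter-Glo) after compound exposure of cells plated at 1000 per well. IC50 values derive from dose-response curves of viability relative to untreated controls, fitted by non-linear regression with variable slope.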

Detroit 562 cell line = test: Additional in vitro IC50 tests (Table 3); type: cell-based; conditions: Homo sapiens
Outline: (§1)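 Cells at 1000/well, viability by CellTiter-Glo luminescence after compound treatment, as % of untreated control. IC50 from variable-slope log(inhibitor) vs response nonlinear regression.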

EBC-1 cell line = test: Additional in vitro IC50 tests (Table 3); type: cell-based; conditions: Homo sapiens
Outline: as §1

Fadu cell line = test: Additional in vitro IC50 tests (Table 3); type: cell-based; conditions: Homo sapiens
Outline: as §1

H2228 cell line = test: Additional in vitro IC50 tests (Table 3); type: cell-based; conditions: Homo sapiens, NCI-H2228
Outline: as §1

SCC-25 cell line = test: Additional in vitro IC50 tests (Table 3); type: cell-based; conditions: Homo sapiens
Outline: as §1

[3] = test system: Capan-1 (pancreas, adenocarcinoma) cells; test: Cell viability assay, CellTiter-Glo (Example 21); type: cell-based, human; conditions: 72 h treatment
Outline: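 Viability of Capan-1 pancreatic adenocarcinoma cells was assessed using Promega's CellTiter-Glo® luminescence kit. Cells were plated at 1000 cells/well in white, flat-bottom 96 well plates, treated, then luminescence was recorded on a BioTek Synergy 2 reader. Dose-response curves were fitted in GraphPad Prism 8.4.2 with a four-parameter variable-slope non-linear regression.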

[4] = test system: DU 145 (prostate, carcinoma) cells; test: Cell viability assay, CellTiter-Glo (Example 21); type: cell-based, human; conditions: 72 h
Outline: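 DU 145 prostate carcinoma cells were plated at 1000 cells/well in white flat-bottom 96 well plates and exposed to compound. Viability was then determined by CellTiter-Glo® luminescence on a BioTek Synergy 2 reader, and dose-response curves were fitted in GraphPad Prism 8.4.2 with a four-parameter variable-slope non-linear regression.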

[5] = test system: Detroit 562 (pharynx, carcinoma) cells; test: Cell viability assay, CellTiter-Glo (Example 21); type: cell-based, human; conditions: 72 h treatment
Outline: (§2)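 Cells were seeded at optimized densities (Panc-1 750, FaDu 1000, Detroit 562 and MDA-MB-453 1500 cells/well), then treated with compound. Viability was read by CellTiter-Glo luminescence. Dose-response curves were fitted by four-parameter variable-slope non-linear regression.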

[6] = test system: EBC-1 (lung, squamous cell carcinoma) cells; test: Cell viability assay, CellTiter-Glo (Example 21); type: cell-based, human; conditions: 72 h treatment
Outline: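 The CellTiter-Glo luminescent cell viability assay (Promega) was used to test compound effects on EBC-1 cells. Cells were plated at 1000 cells/well on white flat-bottom 96 well plates, treated, then read for luminescence on a microplate reader. Dose-response curves were fitted by four-parameter variable-slope non-linear regression.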

[7] = test system: FaDu (pharynx, squamous cell carcinoma) cells; test: Cell viability assay, CellTiter-Glo (Example 21); type: cell-based, human; conditions: 72 h treatment
Outline: as §2

[8] = test system: LNCaP (prostate, carcinoma) cells; test: Cell viability assay, CellTiter-Glo (Example 21); type: cell-based, human; conditions: 72 h
Outline: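 Flat-bottomed white 96 well plates received 1500 LNCaP cells per well, a density chosen to suit the cells' size and growth rate. Following compound treatment, viability was measured by CellTiter-Glo® luminescence per the manufacturer's protocol, with signal recorded on a BioTek Synergy 2 reader. GraphPad Prism 8.4.2 generated dose-response curves using a four-parameter, variable-slope non-linear regression model.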

[9] = test system: MDA-MB-231 (breast, adenocarcinoma) cells; test: Cell viability assay, CellTiter-Glo (Example 21); type: cell-based, human; conditions: 72 h treatment
Outline: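 Viability of MDA-MB-231 cells was quantified by luminescence using Promega's CellTiter-Glo® kit per manufacturer instructions. Cells, plated at a size- and growth-optimized density of 1500 cells/well in white flat-bottom 96 well plates, were treated and then read on a BioTek Synergy 2 reader; dose-response curves used four-parameter variable-slope non-linear regression in GraphPad Prism 8.4.2.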

[10] = test system: MDA-MB-453 (breast, carcinoma) cells; test: Cell viability assay, CellTiter-Glo (Example 21); type: cell-based, human; conditions: 72 h treatment
Outline: as §2

[11] = test system: MIA PaCa-2 (pancreas, carcinoma) cells; test: Cell viability assay, CellTiter-Glo (Example 21); type: cell-based, human; conditions: 72 h treatment
Outline: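 Cell viability of MIA PaCa-2 cells was assessed by CellTiter-Glo® luminescence (Promega, Madison, WI, USA). Cells were plated at 1000 cells/well, a density chosen for their size and growth rate, in white flat-bottomed 96 well plates. After treatment, the signal was recorded on a BioTek microplate reader, and dose-response curves were fitted in GraphPad Prism 8.4.2 with a four-parameter variable-slope non-linear regression.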

[12] = test system: PC-3 (prostate, adenocarcinoma) cells; test: Cell viability assay, CellTiter-Glo (Example 21); type: cell-based, human; conditions: 72 h treatment
Outline: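 Cancer cell viability was assessed by luminescence using Promega's CellTiter-Glo® kit. PC-3 cells, plated at a density of 1000 cells/well in white flat-bottom 96 well plates, were exposed to test compounds, after which signals were measured on a microplate reader and dose-response curves fitted by four-parameter variable-slope non-linear regression in GraphPad Prism 8.4.2.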

[13] = test system: Panc-1 (pancreas, carcinoma) cells; test: Cell viability assay, CellTiter-Glo (Example 21); type: cell-based, human; conditions: 72 h treatment
Outline: as §2

[14] = test system: SCC-25 (tongue, squamous cell carcinoma) cells; test: Cell viability assay, CellTiter-Glo (Example 21); type: cell-based, human; conditions: 72 h treatment
Outline: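 Cell viability of SCC-25 cells was assessed by CellTiter-Glo luminescence after compound exposure. Cells were plated at 1000 cells/well, a density chosen for their size and growth rate, on white flat-bottom 96 well plates. Signal was recorded on a microplate reader, and dose-response curves were fitted in GraphPad Prism by four-parameter variable-slope non-linear regression.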

Panc-1 human cell line = test: Cytotoxicity on Panc-1, xCELLigence SP, IC50 after 24 h, 48 h, 72 h and 96 h (Example 22)

SMILES: [N-]=[N+]=Nc1cccc(CN2CCC3=C(C2)C(=O)N(Cc2ccc(C(F)(F)F)cc2)C2=NCCN23)c1 [I/111, 7-(3-Azidobenzyl)-4-(4-(trifluoromethyl)benzyl)-2,4,6,7,8,9-hexahydroimidazo[1,2-a]pyrido[3,4-e]pyrimidin-5(1H)-one]
- IC50 [1]: 10 nM
- IC50 [2]: 9 nM
- IC50 (Detroit 562 cell line): 3 nM
- IC50 (EBC-1 cell line): 8 nM
- IC50 (Fadu cell line): 11 nM
- IC50 (H2228 cell line): 13 nM
- IC50 (SCC-25 cell line): 15 nM
- Capan-1 (pancreas, adenocarcinoma) cell viability (% of control) ([3]; 3.7 nM): 102.5 ± 4.0 % of control
- Capan-1 (pancreas, adenocarcinoma) cell viability (% of control) ([3]; 11.1 nM): 95.1 ± 8.2 % of control
- Capan-1 (pancreas, adenocarcinoma) cell viability (% of control) ([3]; 100 nM): 31.7 ± 1.7 % of control
- Capan-1 (pancreas, adenocarcinoma) cell viability (% of control) ([3]; 300 nM): 30.8 ± 3.3 % of control
- DU 145 cell viability ([4]; 3.7 nM): 93.6 ± 6.9 % of control
- DU 145 cell viability ([4]; 11.1 nM): 33.8 ± 5.0 % of control
- DU 145 cell viability ([4]; 100 nM): 7.1 ± 2.0 % of control
- DU 145 cell viability ([4]; 300 nM): 8.1 ± 1.9 % of control
- Detroit 562 (pharynx, carcinoma) cell viability (% of control) ([5]; 3.7 nM): 48.0 ± 21.7 % of control
- Detroit 562 (pharynx, carcinoma) cell viability (% of control) ([5]; 11.1 nM): 32.8 ± 3.7 % of control
- Detroit 562 (pharynx, carcinoma) cell viability (% of control) ([5]; 100 nM): 26.8 ± 2.8 % of control
- Detroit 562 (pharynx, carcinoma) cell viability (% of control) ([5]; 300 nM): 28.8 ± 3.8 % of control
- EBC-1 (lung, squamous cell carcinoma) cell viability (% of control) ([6]; 3.7 nM): 94.1 ± 3.0 % of control
- EBC-1 (lung, squamous cell carcinoma) cell viability (% of control) ([6]; 11.1 nM): 54.0 ± 6.5 % of control
- EBC-1 (lung, squamous cell carcinoma) cell viability (% of control) ([6]; 100 nM): 20.6 ± 0.6 % of control
- EBC-1 (lung, squamous cell carcinoma) cell viability (% of control) ([6]; 300 nM): 20.0 ± 0.0 % of control
- FaDu (pharynx, squamous cell carcinoma) cell viability (% of control) ([7]; 3.7 nM): 97.7 ± 3.9 % of control
- FaDu (pharynx, squamous cell carcinoma) cell viability (% of control) ([7]; 11.1 nM): 66.8 ± 12.0 % of control
- FaDu (pharynx, squamous cell carcinoma) cell viability (% of control) ([7]; 100 nM): 21.7 ± 5.4 % of control
- FaDu (pharynx, squamous cell carcinoma) cell viability (% of control) ([7]; 300 nM): 22.1 ± 4.8 % of control
- LNCaP cell viability ([8]; 3.7 nM): 97.1 ± 2.6 % of control
- LNCaP cell viability ([8]; 11.1 nM): 32.4 ± 2.3 % of control
- LNCaP cell viability ([8]; 100 nM): 11.8 ± 0.7 % of control
- LNCaP cell viability ([8]; 300 nM): 11.7 ± 0.7 % of control
- MDA-MB-231 (breast, adenocarcinoma) cell viability (% of control) ([9]; 3.7 nM): 102.7 ± 2.8 % of control
- MDA-MB-231 (breast, adenocarcinoma) cell viability (% of control) ([9]; 11.1 nM): 98.5 ± 2.1 % of control
- MDA-MB-231 (breast, adenocarcinoma) cell viability (% of control) ([9]; 100 nM): 56.9 ± 2.2 % of control
- MDA-MB-231 (breast, adenocarcinoma) cell viability (% of control) ([9]; 300 nM): 52.8 ± 2.7 % of control
- MDA-MB-453 (breast, carcinoma) cell viability (% of control) ([10]; 3.7 nM): 107.2 ± 5.9 % of control
- MDA-MB-453 (breast, carcinoma) cell viability (% of control) ([10]; 11.1 nM): 45.7 ± 5.0 % of control
- MDA-MB-453 (breast, carcinoma) cell viability (% of control) ([10]; 100 nM): 30.3 ± 1.0 % of control
- MDA-MB-453 (breast, carcinoma) cell viability (% of control) ([10]; 300 nM): 28.8 ± 0.4 % of control
- MIA PaCa-2 (pancreas, carcinoma) cell viability (% of control) ([11]; 3.7 nM): 100.2 ± 8.8 % of control
- MIA PaCa-2 (pancreas, carcinoma) cell viability (% of control) ([11]; 11.1 nM): 90.6 ± 19.3 % of control
- MIA PaCa-2 (pancreas, carcinoma) cell viability (% of control) ([11]; 100 nM): 16.5 ± 6.7 % of control
- MIA PaCa-2 (pancreas, carcinoma) cell viability (% of control) ([11]; 300 nM): 16.2 ± 6.9 % of control
- PC-3 (prostate, adenocarcinoma) cell viability (% of control) ([12]; 3.7 nM): 106.8 ± 2.4 % of control
- PC-3 (prostate, adenocarcinoma) cell viability (% of control) ([12]; 11.1 nM): 75.5 ± 5.9 % of control
- PC-3 (prostate, adenocarcinoma) cell viability (% of control) ([12]; 100 nM): 32.0 ± 3.2 % of control
- PC-3 (prostate, adenocarcinoma) cell viability (% of control) ([12]; 300 nM): 31.3 ± 3.0 % of control
- Panc-1 (pancreas, carcinoma) cell viability (% of control) ([13]; 3.7 nM): 106.1 ± 7.3 % of control
- Panc-1 (pancreas, carcinoma) cell viability (% of control) ([13]; 11.1 nM): 99.6 ± 1.4 % of control
- Panc-1 (pancreas, carcinoma) cell viability (% of control) ([13]; 100 nM): 50.1 ± 2.0 % of control
- Panc-1 (pancreas, carcinoma) cell viability (% of control) ([13]; 300 nM): 49.7 ± 1.2 % of control
- SCC-25 (tongue, squamous cell carcinoma) cell viability (% of control) ([14]; 3.7 nM): 98.3 ± 4.0 % of control
- SCC-25 (tongue, squamous cell carcinoma) cell viability (% of control) ([14]; 11.1 nM): 79.0 ± 11.0 % of control
- SCC-25 (tongue, squamous cell carcinoma) cell viability (% of control) ([14]; 100 nM): 32.5 ± 1.2 % of control
- SCC-25 (tongue, squamous cell carcinoma) cell viability (% of control) ([14]; 300 nM): 36.4 ± 0.9 % of control
- IC50 (Panc-1 human cell line; PANC-1, 72 h, read-out: IC50 (72 h) [nM]): 20.1 ± 1.68 nM
- IC50 (Panc-1 human cell line; PANC-1, 96 h, read-out: IC50 (96 h) [nM]): 8.58 ± 0.256 nM
